Results from US20120328526A1, “Modulation of Nad+ Activity in Neuropathophysiological Conditions and Uses Thereof” (University of Maryland, Baltimore, priority 2011, published 2012).
Entries after “also recorded” stand apart in the source; their conditions may differ.

Legend:
[1] = test system: CD38-deficient cells; assay: Oxygen-glucose deprivation (OGD) in CD38-deficient cell cultures; assay type: cell-based, mouse
From the text: At later recovery periods, tissue NAD(H) decrease since the NAD^+ translocates from mitochondria to the cytosol and is hydrolyzed by the activated NAD^+ glycohydrolases CD38 and PARP1. CD38-dependent overactivation of microglia under diabetic conditions leads to aggravation of ischemic brain damage, astrocytes and neurons prepared from CD38 knockout animals with microglia (9) from wild type or CD38-null animals are co-cultured. The co-cultures are then subjected to OGD and the cell death assessed at 24 h of recovery.
Exposure of cortical astrocytes to OGD plus ISS for 4 h results in significant (>50%) cell death after 24 h of reoxygenation (24) was determined. When cortical neurons are subjected to the same insult for 1 h, a similar level of cell death (40-50%) was observed. Cells cultured under hyperglycemic conditions (30 mM glucose) are more sensitive to the oxygen-glucose deprivation (OGD) insult. The CD38-deficient cells will have elevated basal levels of NAD(H) since the brain NAD(H) levels in CD38-null mice are several-fold higher when compared to wild type mice (6). The protective effect of CD38 knockout in specific cell types will also depend on the oxygen-glucose deprivation-induced loss of mitochondrial NAD(H) that can promote total cellular NAD(H) depletion. […]

[2] = test system: neurons in the CA1 sector of the hippocampus; assay: Forebrain ischemia model, histological outcome in the CA1 sector of the hippocampus; assay type: in vivo, mouse
Protocol: FIGS. 1A-1B show effects of nicotinamide mononucleotide administration. FIG. 1A: Fluoro-Jade B staining of the hippocampal formation of mouse brain subjected to 10 min forebrain ischemia and 5 days of recovery. The middle panels represent enlarged views of the CA1 sector, the CA2-3 border, and DG. Note the high number of degenerating, Fluoro-Jade B positive cells in the CA1 pyramidal cell layer. There are only a few cells stained in the CA3 region, and some cells are stained in the DG. […] Open bars represent average values.
In all groups male, 3 months old animals were used.
C57BL/6 male mice, weighing 20-25 g were used. Mice were fasted overnight with free access to water ad libitum. Animals were anesthetized with 3.5% isoflurane in 70% N2O and 30% O2 and the trachea were intubated with a 20-guage intravenous catheter. Anesthesia was maintained using 1.5% isoflurane in N2O:O2 (70:30) and the lungs were mechanically ventilated at a rate of 120 breaths per min and the tidal volume was adjusted to give normal physiological values of blood gases (34-38 mm Hg pCO2 and […] of pO2). The common carotid arteries was isolated via a neck incision and encircled with loose ligatures for later clamping. Rectal temperature was routinely monitored before, during and after ischemia. A subcutaneous needle thermistor was placed adjacent to the skull. The body and head temperature was maintained at 37.0±0.5° C. by a homeothermic-heating pad and heating lamp.
Two minutes before the common carotid arteries are clamped, the isoflurane concentration will be increased to 5%. […]
Every sixth […] section located between 1.7 and 2.6 mm posterior to bregma (0 mm, 180 mm, 360 mm, 540 mm, 720 mm, 900 mm; 6 sections), which comprises the dorsal hippocampus, was stained with IBA1 antiserum and cresyl violet and used for estimating the total microglial number with distinct morphology and neuronal numbers of normal and dying neurons in the different hippocampal regions. […] Parallel sections were immuno-stained with GFAP antibody and the number of distinct astrocytes were counted in the same hippocampal area. GFAP-immunoreactive cells were classified into three categories: normal, moderate, and intensely activated astrocytes, based on morphological characteristics as assessed by visual inspection (23).
Quantitative analysis is performed on a computer-assisted image analysis system consisting of a Nikon Eclipse 800 photomicroscope equipped with a computer-controlled motorized stage, and a computer running Stereolnvestigator program, a custom-designed morphology and stereology software (27). Cell numbers were quantified according to the optical fractionator method. […]
For quantification of uninjured cells within the CA1 sector of the hippocampus an unbiased stereological technique was used (27). […]

NC(=O)c1ccc[n+]([C@@H]2O[C@H](COP(=O)([O-])O)[C@@H](O)[C@H]2O)c1 [nicotinamide mononucleotide]
protective effect in CD38-deficient cells compared to PARP-1 inhibitors 3-AB or PJ34 [1]: less efficient protective effect
ischemic cell death / brain damage in the CA1 sector of the hippocampus ([2]; 10 min forebrain ischemia, NMN 500 mg/kg at 1 hour of reperfusion, 5 days of recovery): almost completely ameliorated; also recorded: markedly ameliorates ischemic brain damage; also recorded: almost completely eliminate the ischemic brain damage; also recorded: dramatic amelioration of cell death; also recorded: significant protection
ischemic cell death / brain damage in the CA1 sector of the hippocampus ([2]; 10 min forebrain ischemia, NMN 500 mg/kg at 1 hour of reperfusion, 5 days of recovery, listed as NMN): Dramatic reduction of ischemia-induced brain damage
animals that did not show any injured neurons ([2]; 10 min forebrain ischemia, NMN 500 mg/kg at 1 hour of reperfusion, 5 days of recovery, n=6): Five of 6
percentage of uninjured neurons in the CA1 sector vs vehicle-treated wild type mice ([2]; 10 min global cerebral ischemia, NMN 1000 mg/kg IP at start of reperfusion, 6 days of recovery): significantly greater
